Our source for the IC50 values is patent US9085555B2, “Complement pathway modulators and uses thereof” (priority 2011, dated 2015).

pIC50: −log10 of the molar value.

The experiment deals with Factor D (Homo sapiens (Human), UniProt P00746). Briefly: biochemical. Type of experiment: biochemical. The settings on record: read-out: IC50.

By pIC50 is commonly meant −log10 of the IC50, conventionally taken in molar units.

Sequence of Factor D (P00746 26-253): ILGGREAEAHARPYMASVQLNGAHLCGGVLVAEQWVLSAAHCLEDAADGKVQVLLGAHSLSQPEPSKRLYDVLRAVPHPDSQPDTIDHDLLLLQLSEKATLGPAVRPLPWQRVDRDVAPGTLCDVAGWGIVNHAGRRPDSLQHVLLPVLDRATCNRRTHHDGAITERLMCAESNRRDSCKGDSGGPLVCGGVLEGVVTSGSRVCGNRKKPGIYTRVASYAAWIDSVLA

Regarding `NC(=O)n1cc(NC(=O)N2C[C@H](F)C[C@H]2C(=O)NCc2cccc(Cl)c2F)c2ccc(OC(F)F)cc21` [Example 308, (2S,4R)-4-Fluoro-pyrrolidine-1,2-dicarboxylic acid 1-[(1-carbamoyl-6-difluoromethoxy-1H-indol-3-yl)-amide] 2-(3-chloro-2-fluoro-benzylamide)], the pIC50 is 6.90.

`COc1cc(NC(=O)[C@@H]2C[C@@H](F)CN2C(=O)Nc2cn(C(N)=O)c3ccccc23)ccn1` [Example 309, (2S,4R)-4-Fluoro-pyrrolidine-1,2-dicarboxylic acid 1-[(1-carbamoyl-1H-indol-3-yl)-amide] 2-[(2-methoxy-pyridin-4-yl)-amide]]: the pIC50 is 6.26.

Consider `NC(=O)n1cc(NC(=O)N2CCS[C@H]2C(=O)Nc2cncc(Cl)c2)c2ccccc21` [Example 310, (S)-Thiazolidine-2,3-dicarboxylic acid 3-[(1-carbamoyl-1H-indol-3-yl)-amide] 2-[(5-chloro-pyridin-3-yl)-amide]], for which the negative-log IC50 (pIC50) is 6.32.

`C=CCOc1ccc2c(NC(=O)N3C4CC4C[C@H]3C(=O)NCc3cccc(Cl)c3F)cn(C(N)=O)c2c1` (stereo partly drawn) [Example 311, (1R,3S,5R)-2-Aza-bicyclo[3.1.0]hexane-2,3-dicarboxylic acid 2-[(6-allyloxy-1-carbamoyl-1H-indol-3-yl)-amide] 3-(3-chloro-2-fluoro-benzylamide)]: the pIC50 is 7.15.

On to `NC(=O)n1cc(NC(=O)N2C[C@@H](CO)C[C@H]2C(=O)NCc2cccc(Cl)c2F)c2ccccc21` [Example 312, (2S,4S)-4-Hydroxymethyl-pyrrolidine-1,2-dicarboxylic acid 1-[(1-carbamoyl-1H-indol-3-yl)-amide] 2-(3-chloro-2-fluoro-benzylamide)], for which the negative logarithm of the IC50 (pIC50) is 6.94.

Take `NC(=O)n1cc(NC(=O)N2CCC[C@H]2C(=O)Nc2cccc(OC(F)(F)F)c2)c2ccc(OCc3ccccc3)cc21` [Example 313, (S)-Pyrrolidine-1,2-dicarboxylic acid 1-[(6-benzyloxy-1-carbamoyl-1H-indol-3-yl)-amide]2-[(3-trifluoromethoxy-phenyl)-amide]]: the pIC50 is 5.89.

Turning to `CN(C)C[C@@H](NC(=O)[C@@H]1C[C@H]2C[C@H]2N1C(=O)Nc1cn(C(N)=O)c2ccccc12)c1cccc(Cl)c1F` [Example 314, (1R,3S,5R)-2-Aza-bicyclo[3.1.0]hexane-2,3-dicarboxylic acid 2-[(1-carbamoyl-1H-indol-3-yl)-amide] 3-{[(S)-1-(3-chloro-2-fluoro-phenyl)-2-dimethylamino-ethyl]-amide}], the negative logarithm of the IC50 (pIC50) is 7.70.

In the case of `CCOC(=O)Cc1ccc2c(NC(=O)N3[C@@H]4C[C@@H]4C[C@H]3C(=O)NCc3cccc(Cl)c3F)cn(C(N)=O)c2c1` [Example 315, (1-carbamoyl-3-{[(1R,3S,5R)-3-(3-chloro-2-fluoro-benzylcarbamoyl)-2-aza-bicyclo[3.1.0]hexane-2-carbonyl]-amino}-1H-indol-6-yl)-acetic acid ethyl ester], the pIC50 is 7.89.

In the case of `CO[C@@H]1C[C@@H](C(=O)Nc2cccc(OC(F)(F)F)c2)N(C(=O)Nc2cn(C(N)=O)c3ccccc23)C1` [Example 316, (2S,4R)-4-Methoxy-pyrrolidine-1,2-dicarboxylic acid 1-[(1-carbamoyl-1H-indol-3-yl)-amide] 2-[(3-trifluoromethoxy-phenyl)-amide]], the pIC50 was 5.51.

Turning to `CC(C)(C)c1cc(NC(=O)[C@@H]2C[C@@H](F)CN2C(=O)Nc2cn(C(N)=O)c3ccccc23)ccn1` [Example 317, (2S,4R)-4-Fluoro-pyrrolidine-1,2-dicarboxylic acid 2-[(2-tert-butyl-pyridin-4-yl)-amide] 1-[(1-carbamoyl-1H-indol-3-yl)-amide]], the negative logarithm of the IC50 (pIC50) was 5.55.

Take `COC(=O)COc1ccc2c(c1)c(NC(=O)N1C[C@](C)(F)C[C@H]1C(=O)NCc1cccc(Cl)c1F)cn2C(N)=O` [Example 318, (1-carbamoyl-3-{[(2S,4R)-2-(3-chloro-2-fluoro-benzylcarbamoyl)-4-fluoro-4-methyl-pyrrolidine-1-carbonyl]amino}-1H-indol-5-yloxy)-acetic acid methyl ester]: the pIC50 is 8.52.

As for `NC(=O)n1cc(NC(=O)N2C[C@H](F)C[C@H]2C(=O)N[C@H](c2cccc(Cl)c2)C(F)(F)F)c2ccccc21` [Example 319, (2S,4R)-4-Fluoro-pyrrolidine-1,2-dicarboxylic acid 1-[(1-carbamoyl-1H-indol-3-yl)-amide] 2-{[(R)-1-(3-chloro-phenyl)-2,2,2-trifluoro-ethyl]-amide}], the pIC50 was 6.26.

For `NC(=O)n1cc(NC(=O)N2[C@@H]3C[C@@H]3C[C@H]2C(=O)N[C@H](CO)c2cccc(Cl)c2)c2ccccc21` [Example 320, (1R,3S,5R)-2-Aza-bicyclo[3.1.0]hexane-2,3-dicarboxylic acid 2-[(1-carbamoyl-1H-indol-3-yl)-amide] 3-{[(S)-1-(3-chloro-phenyl)-2-hydroxy-ethyl]-amide}], the pIC50 was 8.15.

Consider `NC(=O)n1cc(NC(=O)N2CCS[C@H]2C(=O)Nc2cncc(Br)c2)c2ccccc21` [Example 321, (S)-Thiazolidine-2,3-dicarboxylic acid 3-[(1-carbamoyl-1H-indol-3-yl)-amide] 2-[(5-bromo-pyridin-3-yl)-amide]], for which the negative-log IC50 (pIC50) was 7.07.

`CN1CCN(C(=O)c2cc(Cl)c(F)c(CNC(=O)[C@@H]3C[C@@H](F)CN3C(=O)Nc3cn(C(N)=O)c4ccccc34)c2)CC1` [Example 322, (2S,4R)-4-Fluoro-pyrrolidine-1,2-dicarboxylic acid 1-[(1-carbamoyl-1H-indol-3-yl)-amide] 2-[3-chloro-2-fluoro-5-(4-methyl-piperazine-1-carbonyl)-benzylamide]]: the pIC50 was 6.46.

As for `NC(=O)n1cc(NC(=O)N2C[C@H](F)C[C@H]2C(=O)Nc2ccncc2F)c2ccccc21` [Example 323, (2S,4R)-4-Fluoro-pyrrolidine-1,2-dicarboxylic acid 1-[(1-carbamoyl-1H-indol-3-yl)-amide] 2-[(3-fluoro-pyridin-4-yl)-amide]], the negative-log IC50 (pIC50) is 6.04.

For `NC(=O)c1cccc(NC(=O)[C@@H]2CCCN2C(=O)Nc2cn(C(N)=O)c3ccccc23)c1` [Example 324, (S)-Pyrrolidine-1,2-dicarboxylic acid 1-[(1-carbamoyl-1H-indol-3-yl)-amino] 2-[(3-carbamoyl-phenyl)-amide]], the negative logarithm of the IC50 (pIC50) is 5.37.

Regarding `CS(=O)(=O)c1cccc(NC(=O)[C@@H]2CCCN2C(=O)Nc2cn(C(N)=O)c3ccccc23)c1` [Example 325, (S)-Pyrrolidine-1,2-dicarboxylic acid 1-[(1-carbamoyl-1H-indol-3-yl)-amide] 2-[(3-methanesulfonyl-phenyl)-amide]], the pIC50 is 5.65.

Regarding `NC(=O)n1cc(NC(=O)N2C[C@H](F)C[C@H]2C(=O)Nc2ncccc2F)c2ccccc21` [Example 327, (2S,4R)-4-Fluoro-pyrrolidine-1,2-dicarboxylic acid 1-[(1-carbamoyl-1H-indol-3-yl)-amide] 2-[(3-fluoro-pyridin-2-yl)-amide]], the negative logarithm of the IC50 (pIC50) was 5.77.

For the compound `CN(C)CCN(C)c1cc(Cl)c(F)c(CNC(=O)[C@@H]2C[C@@H](F)CN2C(=O)Nc2cn(C(N)=O)c3ccccc23)c1` [Example 329, (2S,4R)-4-Fluoro-pyrrolidine-1,2-dicarboxylic acid 1-[(1-carbamoyl-1H-indol-3-yl)-amide] 2-{3-chloro-5-[(2-dimethylamino-ethyl)-methyl-amino]-2-fluoro-benzylamide}], the negative-log IC50 (pIC50) was 6.74.

Turning to `CC(C)(C)c1cccc(NC(=O)[C@@H]2CC3CC3N2C(=O)Nc2cn(C(N)=O)c3ccccc23)c1` (stereo partly drawn) [Example 330, (1R,3S,5R)-2-Aza-bicyclo[3.1.0]hexane-2,3-dicarboxylic acid 3-[(3-tert-butyl-phenyl)-amide] 2-[(1-carbamoyl-1H-indol-3-yl)-amide]], the negative logarithm of the IC50 (pIC50) is 6.60.

With `NC(=O)n1cc(NC(=O)N2C[C@@H](O)C[C@H]2C(=O)NCc2cccc(Cl)c2F)c2ccccc21` [Example 331, (2S,4S)-4-Hydroxy-pyrrolidine-1,2-dicarboxylic acid 1-[(1-carbamoyl-1H-indol-3-yl)-amide] 2-(3-chloro-2-fluoro-benzylamide)], the pIC50 is 7.46.

Consider `CCOC(=O)c1cc(Br)c(F)c(NC(=O)[C@@H]2C[C@@H](F)CN2C(=O)Nc2cn(C(N)=O)c3ccccc23)c1` [Example 333, 3-Bromo-5-{[(2S,4R)-1-(1-carbamoyl-1H-indol-3-ylcarbamoyl)-4-fluoro-pyrrolidine-2-carbonyl]-amino}-4-fluoro-benzoic acid ethyl ester], for which the pIC50 is 7.33.

In the case of `C=CCOc1ccc2c(c1)c(NC(=O)N1CCC[C@H]1C(=O)Nc1cccc(OC(F)(F)F)c1)cn2C(N)=O` [Example 335, (S)-Pyrrolidine-1,2-dicarboxylic acid 1-[(5-allyloxy-1-carbamoyl-1H-indol-3-yl)-amide] 2-[(3-trifluoromethoxy-phenyl)-amide]], the pIC50 was 6.26.

In the case of `C[C@@H]1CC[C@@H](C(=O)Nc2cccc(OC(F)(F)F)c2)N1C(=O)Nc1cn(C(N)=O)c2ccccc12` [Example 336, (2S,5R)-5-Methyl-pyrrolidine-1,2-dicarboxylic acid 1-[(1-carbamoyl-1H-indol-3-yl)-amide]2-[(3-trifluoromethoxy-phenyl)-amide]], the negative-log IC50 (pIC50) is 6.12.

As to `C[C@H]1CC[C@@H](C(=O)Nc2cccc(OC(F)(F)F)c2)N1C(=O)Nc1cn(C(N)=O)c2ccccc12` [Example 337, (2S,5S)-5-Methyl-pyrrolidine-1,2-dicarboxylic acid 1-[(1-carbamoyl-1H-indol-3-yl)-amide]2-[(3-trifluoromethoxy-phenyl)-amide]], the negative-log IC50 (pIC50) was 6.60.

On to `CC[C@@H]1CC[C@@H](C(=O)Nc2cccc(OC(F)(F)F)c2)N1C(=O)Nc1cn(C(N)=O)c2ccccc12` [Example 338, (2S,5R)-5-Ethyl-pyrrolidine-1,2-dicarboxylic acid 1-[(1-carbamoyl-1H-indol-3-yl)-amide]2-[(3-trifluoromthoxy-phenyl)-amide]], for which the pIC50 is 4.72.

Consider `NC(=O)n1cc(NC(=O)N2C[C@H](F)C[C@H]2C(=O)Nc2cc(Cl)cc(C(=O)O)c2)c2ccccc21` [Example 339, 3-Chloro-5-{[(2S,4R)-1-(1-carbamoyl-1H-indol-3-ylcarbamoyl)-4-fluoro-pyrrolidine-2-carbonyl]-amino}-benzoic acid], for which the pIC50 was 7.19.
